Data on ten molecules can be found in patent US4567175A, “8-Chloro-1,5-benzothiazepine derivatives” (Tanabe Seiyaku Co., Ltd., priority 1983, dated 1986).

Series [1] deals with platelet aggregation. Kind of series: Platelet aggregation-inhibiting activity, collagen-induced aggregation in rat platelet-rich plasma, Born's method (Experiment 5). Set-up: key: -: less than 10% inhibition of platelet aggregation; +: not less than 10% inhibition of platelet aggregation but said percentage inhibition was lower than that of acetylsalicylic acid (100 μg/ml); ++: platelet aggregation-inhibiting activity at least as strong as that of acetylsalicylic acid (100 μg/ml). It counts as cell-based, male Sprague-Dawley rats. As to conditions: final concentration 100 μg/ml, rat PRP, 37° C. The text has this:
Blood was collected from the abdominal aorta of male Sprague-Dawley rats which were anesthetized with ether. Nine volumes of rat blood were mixed with one volume of an aqueous trisodium citrate solution, and the mixture was centrifuged to give platelet-rich plasma ("PRP") as the supernatant solution. The bottom layer was further centrifuged to give platelet-poor plasma ("PPP") as the supernatant solution. Platelet counts were adjusted to 0.8-1×10^6 /mm^3 for PRP by dilution with PPP. After a mixture of 200 μl of the diluted PRP and 25 μl of a test compound solution (final concentration: 100 μg/ml) was stirred for 2 minutes at 37° C., 25 μl of a collagen solution [Biochim. Biophys. Acta, 186, page 254(1969)] were added thereto. The degree of platelet aggregation was estimated by Born's method [Nature, 194, page 927(1962)] and the percentage inhibition of platelet aggregation was calculated therefrom.

Series [2] relates to vertebral artery. The series is described as follows: Cerebral vasodilating activity: vertebral artery blood flow in anesthetized dogs, intraarterial injection, potency ratio to papaverine (Experiment 2). Format: in vivo. Conditions: for Cerebral vasodilating activity (potency ratio): injected into vertebral artery, potency ratio to papaverine from dose-response curves; for increase in vertebral artery blood flow (in words) / cerebral vasodilating activity, times stronger than the 7-chloro derivative: intraarterial; for cerebral vasodilating activity, times stronger than the 7-chloro derivative: versus (+)-cis-...-7-chloro-... hydrochloride (so in the source). Here is the method:
On the other hand, when the coronary vasodilating activity is estimated by the Langendorff method using isolated hearts of guinea pigs, said activity of (+)-cis-2-(4-methoxyphenyl)-3-acetoxy-5-[2-(dimethylamino)ethyl]-8-chloro- 2,3-dihydro-1,5-benzothiazepin-4(5H)-one hydrochloride is about 10 times stronger than that of papaverine.
Male dogs weighing 10 to 20 kg were anesthetized with sodium pentobarbital (30 mg/kg, intravenous injection). The blood flow in vertebral artery was measured continuously by means of an electromagnetic flowmeter under artificial respiration. A test compound dissolved in an aqueous 5% glucose solution was injected into vertebral artery. The cerebral vasodilating activity of the test compound was estimated in terms of the potency ratio of said compound to papaverine, which was calculated from the dose-response curves thereof.

In series [3] the test system is vertebral artery. The series is described as follows: Cerebral vasodilating activity: increase in vertebral artery blood flow in anesthetized dogs after femoral vein injection (Experiment 3). It counts as in vivo. Conditions: 200 μg/kg into femoral vein. The procedure: Male dogs weighing about 20-24 kg (one group: 2 dogs) were anesthetized with sodium pentobarbital (35 mg/kg, intravenous injection). The blood flow in vertebral artery was measured by means of an electromagnetic flowmeter under artificial respiration. A test compound (i.e., (+)-cis-2-(4-methoxyphenyl)-3-acetoxy-5-[2-(dimethylamino)ethyl]-8-chloro- 2,3-dihydro-1,5-benzothiazepin-4(5H)-one hydrochloride) in a physiological saline solution was injected into the femoral vein at a dose of 200 μg/kg. The cerebral vasodilating activity of the test compound was estimated in terms of "increase (Δml/minute) in vertebral artery blood flow" which was calculated by subtracting "the blood flow measured immediately before injection of test compound" from "the blood flow measured at a period of time after injection of test compound".

Series [4] relates to isolated heart of guinea pig. Kind of series: Coronary vasodilating activity: Langendorff's method, coronary blood flow of isolated guinea pig heart (Experiment 4). As to conditions: for Coronary vasodilating activity (increase in coronary blood flow): isolated guinea pig heart, Langendorff, 30° C. Here is the method:
Langendorff's method was used for testing the effect on the coronary blood flow of the isolated heart of guinea pig (about 280 g). The isolated heart was perfused with Locke-Ringer solution containing 2% of defibrinated rabbit blood, which had been saturated with a mixed gas of 95% O2 and 5% CO2 (30° C.). Perfusion pressure was kept at 40 cm H2 O. A solution of a test compound in an aqueous 5% glucose solution was injected into the perfusing solution at a volume of 0.1 ml per heart. The overflow of the perfusate was measured by means of a drop counter.
The coronary vasodilating activity of the test compound was expressed as "±" if the increase in coronary blood flow is less than 0.5 ml/minute at a dose of 100 μg/heart; "+" if the increase is not less than 0.5 ml/minute at a dose of 100 μg/heart; "++" if the increase is not less than 0.5 ml/minute at a dose of 30 μg/heart; and "+++" if the increase is not less than 0.5 ml/minute at a dose of not more than 10 μg/heart.

Series [5] is described as follows: Acute toxicity (LD50), oral administration to mice. Conditions: mouse, in vivo. The procedure: For example, the acute toxicity (LD50) of (+)-cis-2-(4-methoxyphenyl)-3-acetoxy-5-[2-(dimethylamino)ethyl]-8-chloro- 2,3-dihydro-1,5-benzothiazepin-4(5H)-one hydrochloride when orally administered to mice is more than 1000 mg/kg.
For series [6], the system named is spontaneously hypertensive rats (SHR). The series is described as follows: Hypotensive activity, oral administration to SHR, systolic blood pressure by tail plethysmography (Experiment 1). Format: in vivo. Conditions: 30 mg/kg oral. The procedure: A test compound (dose: 30 mg/kg) dissolved or suspended in water was administered orally to spontaneously hypertensive rats (SHR) (one group: 3 rats) fasted overnight. The systolic blood pressure of the rats was measured by the tail plethysmographic technique (The Journal of Laboratory and Clinical Medicine 78(1971), page 957). The hypotensive activity of the test compound was estimated at one or 4 hours after dosing and expressed as "-" if the decrease in blood pressure is less than 10 mm Hg; "+" if the decrease is not less than 10 mm Hg but less than 20 mm Hg; "++" if the decrease is not less than 20 mm Hg but less than 40 mm Hg; "+++" if the decrease is not less than 40 mm Hg but less than 60 mm Hg; or "++++" if the decrease is not less than 60 mm Hg.

Some results are limits rather than exact numbers.

Take `COc1ccc([C@@H]2Sc3cc(Cl)ccc3N(CCN(C)C)C(=O)[C@@H]2O)cc1.O=C(O)C(=O)O` (single isomer, unassigned) [(+)-cis-2-(4-methoxyphenyl)-3-hydroxy-5-[2-(dimethylamino)ethyl]-8-chloro-2,3-dihydro-1,5-benzothiazepin-4(5H)-one oxalate]: the Platelet aggregation-inhibiting activity entry in series [1] is recorded as “++”.

For orientation: LD50 means the dose at which mortality reaches 50%. For the molecule `COc1ccc([C@@H]2Sc3cc(Cl)ccc3N(CCN(C)C)C(=O)[C@@H]2OC(C)=O)cc1.Cl` (single isomer, unassigned) [(+)-cis-2-(4-methoxyphenyl)-3-acetoxy-5-[2-(dimethylamino)ethyl]-8-chloro-2,3-dihydro-1,5-benzothiazepin-4(5H)-one hydrochloride], in series [2], the “Cerebral vasodilating activity (potency ratio)” value was 25; the “increase in vertebral artery blood flow (in words)” value is given as “remarkable increase”; the “cerebral vasodilating activity, times stronger than the 7-chloro derivative” value is recorded as “about 5 times”. Further, the “Increase in vertebral artery blood flow, 1 minute” value in series [3] (1 minute after injection) is given as 58 Δml/minute. Besides, in series [3] (3 minutes after injection), the “Increase in vertebral artery blood flow, 3 minutes” value is reported as 53 Δml/minute. In addition, the “Increase in vertebral artery blood flow, 5 minutes” value in series [3] (5 minutes after injection) was 52 Δml/minute. For the same molecule, the “Increase in vertebral artery blood flow, 10 minutes” value in series [3] (10 minutes after injection) is on record as 38 Δml/minute. For the same molecule, the “Increase in vertebral artery blood flow, 20 minutes” value in series [3] (20 minutes after injection) is listed as 21 Δml/minute. Also, the “Increase in vertebral artery blood flow, 30 minutes” value in series [3] (30 minutes after injection) is 14 Δml/minute. For the same molecule, the “coronary vasodilating activity, times stronger than papaverine” value in series [4] (Langendorff method, isolated hearts of guinea pigs, versus papaverine) is “about 10 times”. Besides, the “Coronary vasodilating activity (increase in coronary blood flow)” value in series [4] is given as “+++ (increase is not less than 0.5 ml/minute at a dose of not more than 10 μg/heart)”. This molecule returned an LD50 in series [5] of more than 1000 mg/kg.

With `CCN(CC)CCN1C(=O)[C@H](OC(C)=O)[C@H](c2ccc(OC)cc2)Sc2cc(Cl)ccc21.O=C(O)C(=O)O` (single isomer, unassigned) [(+)-cis-2-(4-methoxyphenyl)-3-acetoxy-5-[2-(diethylamino)ethyl]-8-chloro-2,3-dihydro-1,5-benzothiazepin-4(5H)-one oxalate], the Platelet aggregation-inhibiting activity result in series [1] is reported as “++”.

With `COc1ccc([C@@H]2Sc3cc(Cl)ccc3N(CCN(C)C)C(=O)[C@@H]2OC(C)=O)cc1.O=C(O)/C=C\C(=O)O` (single isomer, unassigned) [(+)-cis-2-(4-methoxyphenyl)-3-acetoxy-5-[2-(dimethylamino)ethyl]-8-chloro-2,3-dihydro-1,5-benzothiazepin-4(5H)-one maleate], in series [6], the “Hypotensive activity (decrease in blood pressure), 1 hr after dosing” value was “++++ (decrease is not less than 60 mm Hg)” and the “Hypotensive activity (decrease in blood pressure), 4 hrs after dosing” value is recorded as “++++ (decrease is not less than 60 mm Hg)”. In series [6] (4 hours), the “decrease in blood pressure, 4 hours after administration” value is approximately 68 mm Hg. In series [6] (one hour), the “decrease in blood pressure, one hour after administration” value was “about 86 mm Hg”.

For the molecule `COc1ccc(Cc2nccc3cc(OC)c(OC)cc23)cc1OC` [Papaverine, reference compound], in series [4], the “Coronary vasodilating activity (increase in coronary blood flow)” value was “+ (increase is not less than 0.5 ml/minute at a dose of 100 μg/heart)”.

With `COc1ccc([C@@H]2Sc3ccc(Cl)cc3N(CCN(C)C)C(=O)[C@@H]2OC(C)=O)cc1.Cl` (racemic) [(±)-cis-2-(4-methoxyphenyl)-3-acetoxy-5-[2-(dimethylamino)ethyl]-7-chloro-2,3-dihydro-1,5-benzothiazepin-4(5H)-one hydrochloride, reference compound], in series [6], the “Hypotensive activity (decrease in blood pressure), 1 hr after dosing” value is “- (decrease in blood pressure is less than 10 mm Hg)” and the “Hypotensive activity (decrease in blood pressure), 4 hrs after dosing” value is “++ (decrease is not less than 20 mm Hg but less than 40 mm Hg)”. In series [2], the “Cerebral vasodilating activity (potency ratio)” value was 5.

Turning to `CCN(C)CCN1C(=O)[C@H](OC(C)=O)[C@H](c2ccc(OC)cc2)Sc2cc(Cl)ccc21.Cl` (racemic) [(±)-cis-2-(4-methoxyphenyl)-3-acetoxy-5-[2-(N-methyl-N-ethylamino)ethyl]-8-chloro-2,3-dihydro-1,5-benzothiazepin-4(5H)-one hydrochloride], in series [6], the “Hypotensive activity (decrease in blood pressure), 1 hr after dosing” value is given as “+++ (decrease is not less than 40 mm Hg but less than 60 mm Hg)” and the “Hypotensive activity (decrease in blood pressure), 4 hrs after dosing” value is “+++ (decrease is not less than 40 mm Hg but less than 60 mm Hg)”.

`COc1ccc([C@@H]2Sc3cc(Cl)ccc3N(CCN(C)C)C(=O)[C@@H]2OC(C)=O)cc1.Cl` (racemic) [(±)-cis-2-(4-methoxyphenyl)-3-acetoxy-5-[2-(dimethylamino)ethyl]-8-chloro-2,3-dihydro-1,5-benzothiazepin-4(5H)-one hydrochloride]: in series [6], the “Hypotensive activity (decrease in blood pressure), 1 hr after dosing” value is reported as “++ (decrease is not less than 20 mm Hg but less than 40 mm Hg)” and the “Hypotensive activity (decrease in blood pressure), 4 hrs after dosing” value is recorded as “++++ (decrease is not less than 60 mm Hg)”. Further, the “Coronary vasodilating activity (increase in coronary blood flow)” value in series [4] is “+++ (increase is not less than 0.5 ml/minute at a dose of not more than 10 μg/heart)”. Further, the Platelet aggregation-inhibiting activity entry in series [1] is given as “++”.

Turning to `CCC(=O)O[C@H]1C(=O)N(CCN(C)C)c2ccc(Cl)cc2S[C@H]1c1ccc(OC)cc1.O=C(O)C(=O)O` (single isomer, unassigned) [(+)-cis-2-(4-methoxyphenyl)-3-propionyloxy-5-[2-(dimethylamino)ethyl]-8-chloro-2,3-dihydro-1,5-benzothiazepin-4(5H)-one oxalate], in series [2], the “Cerebral vasodilating activity (potency ratio)” value is 23.7; the “increase in vertebral artery blood flow (in words)” value is “remarkable increase”; the “cerebral vasodilating activity, times stronger than the 7-chloro derivative” value is “about 5 times”. Further, the Platelet aggregation-inhibiting activity entry in series [1] is “++”.

Consider `CCCN(C)CCN1C(=O)[C@H](OC(C)=O)[C@H](c2ccc(OC)cc2)Sc2cc(Cl)ccc21.O=C(O)C(=O)O` (racemic) [(±)-cis-2-(4-methoxyphenyl)-3-acetoxy-5-[2-(N-methyl-N-n-propylamino)ethyl]-8-chloro-2,3-dihydro-1,5-benzothiazepin-4(5H)-one oxalate], for which the “Coronary vasodilating activity (increase in coronary blood flow)” value in series [4] was “+++ (increase is not less than 0.5 ml/minute at a dose of not more than 10 μg/heart)”. Besides, the Platelet aggregation-inhibiting activity entry in series [1] was “++”.
